Reference: patent publication US8759031B2, “Type I polyketide synthase extender units” (priority 2007, dated 2014)
Where two headings read alike, the source gives them in different places.

Experiments:
ZmaJ [1] = target: T1, ZmaJ (Bacillus cereus, UniProt Q7BQ71)
Procedure: ATP-PPi exchange assays were performed as previously described (Thomas et al., 2002, Chem. Biol. 9: 171-184). Reactions for amino acid specificity contained 70 nM ZmaJ and 1 mM of the following amino acids: L-Ser, L-2,3-diaminopropionate, L-Thr, Gly, and L-Cys. To determine the kinetic parameters of ZmaJ activation of L-Ser, 100 μL reactions containing 70 nM ZmaJ, 3.5 mM ATP, and varying concentrations of L-Ser (0.35 to 10 mM), in triplicate, were incubated for 10 min prior to stopping the reactions.

N[C@@H](CO)C(=O)O = test: purified protein, by the assay type; details: other: 70 nM ZmaJ, 3.5 mM ATP, L-Ser 0.35 to 10 mM, 10 min, triplicate
Procedure: ZmaJ used in these assays was purified by an additional anion exchange chromatography step, which had no effect on seryl-ZmaH formation. […] Reactions for amino acid specificity contained 70 nM ZmaJ and 1 mM of the following amino acids: L-Ser, L-2,3-diaminopropionate, L-Thr, Gly, and L-Cys. To determine the kinetic parameters of ZmaJ activation of L-Ser, 100 μL reactions containing 70 nM ZmaJ, 3.5 mM ATP, and varying concentrations of L-Ser (0.35 to 10 mM), in triplicate, were incubated for 10 min prior to stopping the reactions. The reactions were in the linear range for enzyme concentration and less than 10% substrate-to-product conversion.

ZmaN = test: Formation of glyceryl-ZmaD (ZmaN-catalyzed modification of holo-ACP, HPLC analysis); assay type: biochemical, Bacillus cereus; details: 50 μM 3-PG, ATP
Procedure: Control reactions were run without ZmaN, ATP, or with 2 U of 3-PGPK (Sigma). A time course comparing reactions with and without 3-PGPK contained 50 μM 3-PG, and the reactions were run for 0.5, 2.0, 5.0, and 10 min.
Reactions containing glyceraldehyde-3-phosphate (150 μl final volume) contained: 12.5 μM holo-ZmaD, 75 mM Tris pH 7.5, 10 mM MgCl2, 1 mM TCEP, 100 mM NaCl, 500 μM CoA, 1 μM Sfp, 250 μM DL-glyceraldehyde-3-phosphate (Sigma), 1 U GAPDH (Sigma), and 1 μM ZmaN were run for 40 min at 22° C. Control reactions without GAPDH, DL-glyceraldehyde-3-phosphate, Sfp, or ZmaN were run, as well as control reactions in which holo-ZmaH replaced holo-ZmaD.

ZmaJ [2] = target: T1, ZmaJ; details: 10 μM holo-ZmaD replaced holo-ZmaH; L-serine, ATP
Procedure: Reaction mixtures (130 or 260 μl) contained: 10 μM holo-ZmaH, 58 mM Tris pH 7.5, 8 mM MgCl2, 0.8 mM TCEP, 385 μM CoA, 0.8 μM Sfp, 250 μM L-serine, 5 mM ATP, and 1 μM ZmaJ. The reaction mixtures were incubated at 22° C. for 1 hour. To test whether seryl-ZmaD could be formed, 10 μM holo-ZmaD replaced the 10 μM holo-ZmaH in a 130 μL reaction mixture.
In this experiment, 100-200 μl of apo- or holo-ZmaH or 130-200 μl of aminoacylated ZmaH reaction products was injected, and products were separated using the same method as above.

T1 sequence (Q7BQ71 whole entry): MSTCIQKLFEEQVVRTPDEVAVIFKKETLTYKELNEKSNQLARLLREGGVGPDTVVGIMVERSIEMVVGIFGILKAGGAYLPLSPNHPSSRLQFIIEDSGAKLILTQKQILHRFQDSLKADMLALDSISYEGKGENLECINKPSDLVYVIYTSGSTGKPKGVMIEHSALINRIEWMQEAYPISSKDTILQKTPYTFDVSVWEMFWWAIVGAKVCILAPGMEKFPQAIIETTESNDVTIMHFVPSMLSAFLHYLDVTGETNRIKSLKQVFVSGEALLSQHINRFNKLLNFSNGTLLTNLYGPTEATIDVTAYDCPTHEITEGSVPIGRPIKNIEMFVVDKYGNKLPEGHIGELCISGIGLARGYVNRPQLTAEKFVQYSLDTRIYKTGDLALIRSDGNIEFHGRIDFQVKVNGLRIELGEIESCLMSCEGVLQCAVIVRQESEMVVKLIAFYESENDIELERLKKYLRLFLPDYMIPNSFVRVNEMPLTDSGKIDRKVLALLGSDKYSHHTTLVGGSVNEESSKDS
Sequence of ZmaN (as listed by the source, one chain of several): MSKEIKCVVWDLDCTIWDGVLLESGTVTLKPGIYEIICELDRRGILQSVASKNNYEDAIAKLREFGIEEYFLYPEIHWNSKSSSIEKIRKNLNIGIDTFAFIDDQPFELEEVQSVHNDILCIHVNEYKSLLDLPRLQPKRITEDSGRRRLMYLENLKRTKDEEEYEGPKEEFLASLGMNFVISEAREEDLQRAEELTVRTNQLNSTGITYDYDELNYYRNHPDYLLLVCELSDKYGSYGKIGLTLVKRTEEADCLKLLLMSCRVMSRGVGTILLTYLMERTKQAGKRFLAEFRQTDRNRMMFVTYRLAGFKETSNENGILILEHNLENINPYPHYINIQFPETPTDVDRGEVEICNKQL

Molecule: NCC(=O)O [Gly]
- amino acid substrate specificity of ZmaJ (activation) (ZmaJ [1]): activated only L-Ser

Molecule: N[C@@H](CS)C(=O)O [L-Cys]
- amino acid substrate specificity of ZmaJ (activation) (ZmaJ [1]; 70 nM ZmaJ, 1 mM amino acid): activated only L-Ser

Molecule: N[C@@H](CO)C(=O)O [L-Ser, L-serine]
- amino acid substrate specificity of ZmaJ (activation) (ZmaJ [1]; 70 nM ZmaJ, 1 mM amino acid): activated only L-Ser

Molecule: C[C@@H](O)[C@H](N)C(=O)O [L-Thr]
- amino acid substrate specificity of ZmaJ (activation) (ZmaJ [1]; 70 nM ZmaJ, 1 mM amino acid): activated only L-Ser

Molecule: L-2,3-diaminopropionate
- amino acid substrate specificity of ZmaJ (activation) (ZmaJ [1]; 70 nM ZmaJ, 1 mM amino acid): activated only L-Ser

Molecule: ZmaJ (Bacillus cereus)
- Km (N[C@@H](CO)C(=O)O): 1800 ± 200 µM
- kcat (N[C@@H](CO)C(=O)O): 0.7 ± 0.033 s⁻¹

B1: holo-ZmaD: acyl carrier protein ZmaD (SEQ ID NO:2) phosphopantetheinylated in vitro by Sfp (protein, listed as Bacillus cereus)
chain: MDNHEKIRQYIKKNLIIFNAEETIVANDENIFEKGYVNSLFAMQMLNFIETEFDIVVDNDELDIINFSTINNMVDLINKKKNGNFTV
modifications: phosphopantetheinylated
- rate of holo-ZmaD modification (ZmaN; with 3-PGPK): 1.44 nmol/min
- rate of holo-ZmaD modification (ZmaN; without 3-PGPK): 0.08 nmol/min
- aminoacylation by ZmaJ (seryl-ACP formation) (ZmaJ [2]): not able to aminoacylate
